Results on 13 compounds are retold here after paper PMC7584679 (Journal of Advanced Research, 2020).

As usually defined, the IC50 is the point on the concentration scale where inhibition reaches its midpoint.

Chain of hTS (recombinant human TS, thymidylate synthase) (P04818 2-313): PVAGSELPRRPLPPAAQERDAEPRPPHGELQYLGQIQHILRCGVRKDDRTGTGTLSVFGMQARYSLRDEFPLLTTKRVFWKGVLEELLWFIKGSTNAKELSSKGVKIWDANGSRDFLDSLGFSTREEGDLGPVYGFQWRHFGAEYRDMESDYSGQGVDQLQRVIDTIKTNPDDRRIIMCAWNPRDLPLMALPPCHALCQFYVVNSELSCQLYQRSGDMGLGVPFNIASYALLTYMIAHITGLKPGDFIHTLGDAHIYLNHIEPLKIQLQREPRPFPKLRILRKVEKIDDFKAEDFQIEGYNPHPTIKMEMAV

The experiment concerns the target hTS (recombinant human TS, thymidylate synthase) (Homo sapiens, UniProt P04818). Put plainly: UV absorbance at […] nm, TS activity. The experiment is classed as biochemical.
`O=c1[nH]cc(S(=O)(=O)Nc2cccc(-c3nnc(-c4ccccc4)o3)c2)c(=O)[nH]1` [7a, N-(3-(5-phenyl-1,3,4-oxadiazol-2-yl)phenyl)-2,4-dihydroxypyrimidine-5-sulfuramide]: the 50% inhibitory concentration (IC50) is 3150 ± 610 nM.
In the case of `Cc1ccccc1-c1nnc(-c2cccc(NS(=O)(=O)c3c[nH]c(=O)[nH]c3=O)c2)o1` [7b, N-(3-(5-(o-tolyl)-1,3,4-oxadiazol-2-yl)phenyl)-2,4-dihydroxypyrimidine −5-sulfonamide], the IC50 worked out at 2750 ± 290 nM.
Next, `Cc1cccc(-c2nnc(-c3cccc(NS(=O)(=O)c4c[nH]c(=O)[nH]c4=O)c3)o2)c1` [7c, N-(3-(5-(m-tolyl)-1,3,4-oxadiazol-2-yl)phenyl)-2,4-dihydroxypyrimidine-5-sulfonamide]: 1460 ± 370 nM; `Cc1ccc(-c2nnc(-c3cccc(NS(=O)(=O)c4c[nH]c(=O)[nH]c4=O)c3)o2)cc1` [7d, N-(3-(5-(p-tolyl)-1,3,4-oxadiazol-2-yl)phenyl)-2,4-dihydroxypyrimidine-5-sulfonamide]: 1790 ± 120 nM.
In the case of `O=c1[nH]cc(S(=O)(=O)Nc2cccc(-c3nnc(-c4ccccc4Cl)o3)c2)c(=O)[nH]1` [7e, N-(3-(5-(2-chlorophenyl)-1,3,4-oxadiazol-2-yl)phenyl)-2,4-dihydroxypyrimidine-5-sulfonamide], the half-maximal inhibitory concentration (IC50) was 650 ± 430 nM.
In the case of `O=c1[nH]cc(S(=O)(=O)Nc2cccc(-c3nnc(-c4cccc(Cl)c4)o3)c2)c(=O)[nH]1` [7f, N-(3-(5-(3-chlorophenyl)-1,3,4-oxadiazol-2-yl)phenyl)-2,4-dihydroxypyrimidine-5-sulfonamide] it was 110 ± 30 nM; in that of `O=c1[nH]cc(S(=O)(=O)Nc2cccc(-c3nnc(-c4ccc(Cl)cc4)o3)c2)c(=O)[nH]1` [7g, N-(3-(5-(4-chlorophenyl)-1,3,4-oxadiazol-2-yl)phenyl)-2,4-dihydroxypyrimidine-5-sulfonamide], 440 ± 100 nM; in that of `O=c1[nH]cc(S(=O)(=O)Nc2cccc(-c3nnc(-c4ccccc4F)o3)c2)c(=O)[nH]1` [7h, N-(3-(5-(2-fluorophenyl)-1,3,4-oxadiazol-2-yl)phenyl)-2,4-dihydroxypyrimidine-5-sulfonamide], 5180 ± 730 nM.
Next, `O=c1[nH]cc(S(=O)(=O)Nc2cccc(-c3nnc(-c4cccc(F)c4)o3)c2)c(=O)[nH]1` [7i, N-(3-(5-(3-fluorophenyl)-1,3,4-oxadiazol-2-yl)phenyl)-2,4-dihydroxypyrimidine-5-sulfonamide]: 4610 ± 1100 nM; `O=c1[nH]cc(S(=O)(=O)Nc2cccc(-c3nnc(-c4ccccc4Br)o3)c2)c(=O)[nH]1` [7k, N-(3-(5-(2-bromophenyl)-1,3,4-oxadiazol-2-yl)phenyl)-2,4-dihydroxypyrimidine-5-sulfonamide]: 1160 ± 370 nM; `O=c1[nH]cc(S(=O)(=O)Nc2cccc(-c3nnc(-c4cccc(Br)c4)o3)c2)c(=O)[nH]1` [7l, N-(3-(5-(3-bromophenyl)-1,3,4-oxadiazol-2-yl)phenyl)-2,4-dihydroxypyrimidine-5-sulfonamide]: 930 ± 280 nM.
Regarding `O=c1[nH]cc(S(=O)(=O)Nc2cccc(-c3nnc(-c4ccc(Br)cc4)o3)c2)c(=O)[nH]1` [7m, N-(3-(5-(4-bromophenyl)-1,3,4-oxadiazol-2-yl)phenyl)-2,4-dihydroxypyrimidine-5-sulfonamide], the IC50 is 1290 ± 120 nM.
As to `Nc1nc2[nH]cc(CCc3ccc(C(=O)N[C@@H](CCC(=O)O)C(=O)O)cc3)c2c(=O)[nH]1` [PTX], the half-inhibitory concentration (IC50) is 2440 ± 880 nM.
